Where “and” joins values, the source holds several entries; their conditions need not be identical. Equal values may be shown once. Read-outs that look alike come from different tables or passages of the source.
Legend:
[1] = system: Human Multiple Myeloma Cells (MM.1S) cultured in the presence of BAR agonist for one month; experiment: Antiproliferative activity on MM.1S cultured one month in the presence of salmeterol or salbutamol; type: cell-based; settings: Homo sapiens, MM1.S, […] dexamethasone; cells cultured one month in salmeterol (64 nM), Table 48; read-out: inhibition of proliferation
Text: A recurrent problem in cancer therapy is that prolonged exposure of tumor cells to chemotherapeutic agents can generate cells resistant to agents that initially have antiproliferative or cell killing activity. […] Cells cultured for one month in the presence of BAR agonist were washed to remove drug and put into 384 well plates for 9×9 dose matrix combination screening with BAR agonists and dexamethasone.

MM.1S cells = experiment: Annexin V/PI FACS assay of control MM.1S and cells cultured one month with salmeterol or salbutamol; type: cell-based, human
Protocol: Forty eight hours later, the percent of cells positive for Annexin V and propidium iodide (PI) was determined using FACS (FIG. 5).

[2] = system: human multiple myeloma xenografts (MM1S); experiment: MM.1S xenograft model in SCID mice; type: in vivo, mouse; settings: Dex 1 mg/kg or salmeterol 10 mg/kg, subcutaneous daily
Protocol: The human multiple myeloma cell line MM1S was injected subcutaneously into the flanks of SCID mice. Five days following the injection of MM1S cells, animals were randomized into the following four treatment groups (n=6-7) based on tumor size.
Group 1—Vehicle (90% PBS+10% EtOH)
The prepared test, positive, and negative control substances were administered via subcutaneous injection daily for up to 85 Days. During the treatment period, tumor volume and animal body weights were measured 3 times per week (Monday, Wednesday and Friday). The animals were removed from the study if there was overall poor body condition, tumor volume above 3000 mm^3, body weight loss greater than or equal to 20% or ulcerated tumors.
The slope of the tumor volume growth of each animal was calculated from the initial study day until the day each animal was removed from the study. From these slopes the mean change in tumor volume per study day was calculated.

[3] = system: Human Multiple Myeloma Cells (MM.1S)
[4] = system: Human Multiple Myeloma Cells (ANBL-6)
[5] = system: Human Multiple Myeloma Cells (MM.1S); settings: Salmeterol 0 μM (single agent), DEX (μM): 0.15, 0.076, 0.038, 0.019, 0.0096
[6] = system: Human Multiple Myeloma Cells (MM.1S); experiment: cells; settings: MM1.S
[7] = system: Human Multiple Myeloma Cells (MM.1S); experiment: Anti-proliferation assay (ATPLite, 72 hours), MM.1S
[8] = system: multiple myeloma tumor cells from patients; experiment: MTT cell viability assay, multiple myeloma patient tumor cells; settings: patient 1 tumor cells, 48 hours, MTT; Salmeterol 0 nM (single agent); DEX (μM): 4.0, 2.0, 1.0, 0.5, 0.25, 0.125, 0.0625
Text: Tumor cells were obtained via bone marrow aspirates and affinity selected using CD138-linked magnetic beads.

C[C@@H]1C[C@H]2[C@@H]3CCC4=CC(=O)C=C[C@]4(C)[C@@]3(F)[C@@H](O)C[C@]2(C)[C@@]1(O)C(=O)CO [dexamethasone]
inhibition at […] [1]: 51%
Annexin V/PI+ cells (MM.1S cells; cells exposed to salmeterol for one month, 8 nM dexamethasone, 48 hours): 47%
Annexin V/PI+ cells (MM.1S cells; cells exposed to salmeterol for one month, 80 nM dexamethasone, 48 hours): 65%
Annexin V/PI+ cells (MM.1S cells; control cells, 8 nM dexamethasone, 48 hours (FIG. 5)): 8%
Annexin V/PI+ cells (MM.1S cells; control cells, 80 nM dexamethasone, 48 hours (FIG. 5)): 45%
study day by which all animals of the group were removed [2]: ≤ 66 study day
inhibition [3]: 39%
inhibition [4]: 6.13%
percent inhibition of cell proliferation ([5]; +10 ng/ml IL-6): 26%
percent inhibition of cell proliferation ([5]; no IL-6): 45% and 44% and 32% and 27%
inhibition at 0.15 µM ([6]; read-out: inhibition of proliferation, 0.15 μM dexamethasone, 10 ng/ml IL-6 (Table 53)): 24%
inhibition at 0.15 µM ([6]; read-out: inhibition of proliferation, 0.15 μM dexamethasone, no IL-6 (Table 52)): 52%
percent inhibition of cell proliferation ([7]; Clenbuterol 0 μM (single agent), Dexamethasone (μM): 0.15, 0.076, 0.038, 0.019, 0.0095, no ICI 118,551): 47% and 38% and 70% and 63% and 56%
percent inhibition of cell proliferation ([7]; naïve MM.1S, Salbutamol 0 μM (single agent), DEX (μM) by row: r8 2.0, r9 0.666, r10 0.23, r11 0.074, r12 0.024, r13 0.0082, r14 0.00274, r15 0.0009): 75%
Reduction in Cell Viability [8]: 50% and 56% and 53% and 46% and 47%

— US20100009934A1, “BETA ADRENERGIC RECEPTOR AGONISTS FOR THE TREATMENT OF B-CELL PROLIFERATIVE DISORDERS” (CombinatoRx, Incorporated, priority 2008, published 2010)
